# Assay results published in US20190094246A1, “DETECTION OF NEURODEGENERATIVE DISEASES” (AMONETA DIAGNOSTICS SAS, priority 2016, published 2019).
# Experiments:
# [1] = tested on: red blood cells (RBCs) from human subjects; assay: Dose-dependent staining of RBCs, flow cytometry (MEDFI); type: cell-based; conditions: 0.03, 0.1, 0.3, 1 and 3 μM; RBCs 200 000 cells/mL of 3 human subjects; channel FL1 (Ex. 1), FL3 (Ex. 9)
# Experimental: The blood from an animal or a human subject is sampled in specific 5 mL tube, such as lithium-heparin tube. The blood is manually mixed by inversion before use.
# Red blood cells (RBCs) are obtained from whole blood after centrifugation at 200 g for 10 minutes at room temperature. RBCs pellet down and segregate from white blood cells, platelets and plasma. 5 μL of RBCs are pipetted, diluted 1000 times in 5 mL of Flow cytometry buffer (FACS buffer: 150 mM of NaCl; 1 mM of D-Glucose; 5 mM of Na2HPO4; 0.5 mM CaCl2) and either numbered by manual counting on disposable Malassez-like counting cell (X100 Cellule Fast Read, Fisher Scientific, Ref #11762712) with a microscope or counted with Flow count Fluorospheres (Beckman, Ref 7547053) so as to obtain a cell concentration of stock solution to be used in the test. […]
# From these different concentration stocks, the same quantity (4) of compounds at desired concentration to be tested is added to erythrocytes in each FACS vial to obtain the same % of DMSO (0.5% of DMSO) at the end. […] In all experiments, a control is performed with the final amount of compound solvent (DMSO alone, without test compound), in order to obtain the auto-fluorescence of the RBCs.
# These fluorescences are detected by the gating of erythrocytes in a log FSC/log SSC plot. […]
# [2] = tested on: RBCs from transgenic APP/PS1 mice versus age-matched Wild-Type mice; assay: RBC staining in Alzheimer animal model, transgenic versus wild type; type: cell-based
# Text: Transgenic mice used in this study carry two mutations associated with early onset AD: mutant amyloid precursor protein (K670N and M671L) and mutant human presenilin 1 (M146V). These transgenic mice develop AD-related phenotype consisting in beta-amyloid peptide overproduction and formation of amyloid plaques in their brain.
structure (smiles),measurement,setting,value
COCCOCC#CB(C#CCOCCOC)n1c(C)cc(C)c1/C(=C1\N=C(C)C=C1C)c1ccc(C(=O)NCCCn2cc(C3=C(c4cn(C)c5ccccc45)C(=O)NC3=O)c3ccccc32)cc1 [Ex. 9],staining of RBCs (index MEDFI),[1],dose-dependent staining
same,discrimination between transgenic and wild type mice by RBC staining,"[2]; 1 μM, 5 transgenic mice and 6 age-matched wild type mice",excellent accuracy
same,discrimination between the transgenic mouse group and control mouse group by RBC staining,[2]; concentration not given,good accuracy
